According to ChEMBL document CHEMBL2040772, “Tri-substituted acylhydrazines as tertiary amide bioisosteres: HCV NS5B polymerase inhibitors” (Bioorg Med Chem Lett, 2012):
pEC50, pIC50, pKd: −log10 of the molar value.

How the values were obtained:
[1] = Cytotoxicity against human HuH7 cells after 3 days by measuring conversion of nonfluorescent calcein-AM into fluorescent calcein; format: cell-based, Huh-7
Hepatitis C virus [2] = assay: Antiviral activity against HCV1a infected in human Huh-7 cells after 3 days by renilla luciferase activity based replicon assay; format: functional, organism-based, Hepacivirus hominis; settings: subtype 1a, Huh-7, 72 h
Hepatitis C virus [3] = assay: Inhibition of HCV1b NS5B delta21 polymerase assessed as incorporation of nucleotides into sshRNA template using [33P]-CTP after 15 mins by scintillation counting; parameters: species or system Hepatitis C virus subtype 1b; settings: 0.25 h
Hepatitis C virus [4] = assay: Antiviral activity against HCV1b infected in human Huh-7 cells after 3 days by renilla luciferase activity based replicon assay; format: functional, organism-based, Hepacivirus hominis; settings: genotype 1b, Huh-7, 72 h
[5] = Lipophilicity, log D of the compound; format: physicochemical; settings: octanol/water
[6] = Selectivity index, ratio of CC50 for human HuH7 cells to EC50 for HCV1b infected in human Huh-7 cells
Hepatitis C virus [7] = assay: Binding affinity to HCV1b C-terminally truncated NS5B Cdelta21 RNA dependent RNA polymerase expressed in Escherichia coli by surface plasmon resonance assay; parameters: species or system Hepatitis C virus subtype 1b

Compound	pEC50 (Hepatitis C virus [2])	pIC50 (Hepatitis C virus [3])	pEC50 (Hepatitis C virus [4])	CC50 at 72 h [1]	logD [5]	Ratio CC50/EC50 [6]	pKd (Hepatitis C virus [7])
CC(C)N(c1cc(C#CC(C)(C)C)sc1C(=O)O)C(=O)[C@H]1CC[C@H](C)CC1	7.05	7.07	7.59	> 44000 nM	2		
CN([C@H]1CC[C@H](O)CC1)N(c1cc(C#CC(C)(C)C)sc1C(=O)O)C(=O)[C@H]1CC[C@H](C)CC1		6.51	7.47	> 44000 nM			8.10
CN(c1ccncc1)N(c1cc(C#CC(C)(C)C)sc1C(=O)O)C(=O)[C@H]1CC[C@H](C)CC1		6.46	5.41	36000 nM			7.52

The next lines start with results.

pEC50 (Hepatitis C virus [2])	pIC50 (Hepatitis C virus [3])	pEC50 (Hepatitis C virus [4])	Compound	CC50 at 72 h [1]	logD [5]	Ratio CC50/EC50 [6]	pKd (Hepatitis C virus [7])
6.32	7.06	7.05	CN(C)N(c1cc(C#CC(C)(C)C)sc1C(=O)O)C(=O)[C@H]1CC[C@H](C)CC1	> 44000 nM	2.1	>400	
	7.28	7.49	CN(CCO)N(c1cc(C#CC(C)(C)C)sc1C(=O)O)C(=O)[C@H]1CC[C@H](C)CC1	> 44000 nM			8.00
	6.29	7.33	CN(CC1CCOCC1)N(c1cc(C#CC(C)(C)C)sc1C(=O)O)C(=O)[C@H]1CC[C@H](C)CC1	> 44000 nM			8.00
	6.86	7.22	CN(C1CCNCC1)N(c1cc(C#CC(C)(C)C)sc1C(=O)O)C(=O)[C@H]1CC[C@H](C)CC1	> 44000 nM			8.40
7.60	7.20	8.15	CN1CCC(N(C)N(c2cc(C#CC(C)(C)C)sc2C(=O)O)C(=O)[C@H]2CC[C@H](C)CC2)CC1	> 44000 nM			8.40
